Laboratory results from article PMC6368403, “Identification of a bilirubin receptor that may mediate a component of cholestatic itch” (eLife, 2019).
Where “and” joins values, the source holds several entries; their conditions need not be identical. Equal entries are not always repeated.

Key:
[1] = tested on: mice; test: Scratching bouts after subcutaneous injection into the nape of the neck / back; type: in vivo, mouse; details: for Scratching bouts binned according to 5 min intervals (time course of itch behavior): one column per mouse, values of a mouse sum to 1 (Fig 1B)
Experimental: All applicable behavioral tests were performed and analysed with the experimenter blind to genotype. […] On the day before the experiment, animals were placed in the test chamber for 30 min before being subjected to a series of three mock injections with 5 min break periods in between. On the day of the experiment, animals were first allowed to acclimatize to the test chamber for 10 min before injection. […] A bout of scratching was defined as a continuous scratching movement with either hindpaw directed at the area of the injection site. In the cheek injection model, a wipe was defined as a single forepaw stroking the site of the injection. Use of both forepaws on the face or cheek was considered as grooming behavior. […] For H1R block, 30 mg/kg of cetirizine HCl (pH 7.4) was given intraperitoneally thirty minutes prior to injection of bilirubin. Licking behavior was quantified in seconds and identified as the licking of the toes or footpad of the hind paw site of injection that was neither preceded nor followed by licking of any other portion of the body.

[2] = target: T1, MRGPRX4 (Homo sapiens, UniProt Q96LA9); test: Ca2+ imaging and concentration-Ca2+ response (EC50) in HEK293 cells expressing MRGPRX4; type: cell-based; details: for Ca2+ response (concentration-response curve): MRGPRX4, triplicate wells (Fig 2I)
T1 construct: expressed in transfected cells
Experimental: All cultured cells were maintained in DMEM supplemented with 10% FBS and 1% Penicillin/Streptomycin at 37°C, 5% CO2. All data included were generated from cells tested for mycoplasma and found to be negative. Cells were imaged in calcium imaging buffer (CIB; 10 mM HEPES, 1.2 mM NaHCO3, 130 mM NaCl, 3 mM KCl, 2.5 mM CaCl2, 0.6 mM MgCl2, 20 mM glucose, and 20 mM sucrose at pH 7.4 and 290–300 mOsm). To monitor changes in intracellular [Ca^2+] ([Ca^2+]i), cells were loaded with either Fura 2-AM (HEK293 cells) or Fluo 4-AM (DRG neurons and mast cells) for 30 min in the dark at 37°C in CIB just prior to imaging. With Fura 2-AM, emission at 510 nm was monitored from excitation at both 340 nm and 380 nm. With Fluo 4-AM, emission at 520 nm was monitored from excitation at 488 nm. Cells were identified as responding if the intracellular [Ca^2+] rose by either 50% compared to baseline or 50% compared to the [Ca^2+]i change assayed during addition of 50 mM KCl (neurons only). Damaged, detached, high-baseline, and motion-activated cells were excluded from analysis.
In initial screens, HEK293 cells stably expressing the murine G-protein alpha-subunit Gα15, a unique Gα protein that non-selectively couples a large variety of GPCRs to phospholipase C ^30, were plated on poly-D-lysine-coated coverslips and transiently transfected with constructs encoding the MRGRPR of interest. 12–24 hr later, cells were loaded with the Fura 2-AM. Unless otherwise specified, compounds were perfused into the imaging chamber for approximately thirty seconds after a baseline period was established. Response was then monitored at 5 s intervals for an additional 60 s.
HEK293 cells stably expressing either MRGPRA1, MRGPRX4, and MRGRPC11 were seeded in poly-D-lysine-coated 96-well plates at 10,000 cells/well. Cells were loaded with Fura 2–AM, washed twice, and maintained in CIB. Haem metabolites were freshly dissolved in DMSO in dim light and then diluted into a buffer comprised of 20 mM Tris and 150 mM NaCl at pH 8.8. Potential changes in pH were evaluated prior to each experiment. EC50 values were determined from dose-responses performed in triplicate, repeated 2–4 times. To determine potential antagonism by QWF against bilirubin, cells were treated with varying doses of QWF for 1 min in CIB prior to application of agonist.
HEK293 stable cell lines expressing GFP-tagged MRGPRA3, MRGPRC11, MRGPRD, MRGPRX1, and MRGPRX2 were generated in previously described reports ([Liu et al., 2009]; [Liu et al., 2012]; [McNeil et al., 2015]). Briefly, plasmids containing the receptor of interest were transfected into HEK cells using Lipofectamine 3000. After 3 days, cells were then selected using 0.5 mg/mL G418. After 3 weeks, monoclonal colonies were established and each the highest expressing clones were identified. For this study, Mrgpra1 and MRGPRX4 were inserted into pEGFP-N1 and transfected into HEK293 cells. MRGPR-positive cells were selected using 0.5 mg/mL G418 for three weeks, after which GFP-positive cells were sorted by FACS and monoclonally expanded. Two lines expressing similar levels of MRGPRA1 and MRGPRX4, as measured by GFP fluorescence, were selected for study.

[3] = target: T2, MRGPRC11 (Mus musculus, UniProt Q8CIP3); test: [35S]GTPγS binding to MRGPRC11 membrane complexes; type: biochemical; details: 50 μM bilirubin
T2 construct: expressed in transfected cells
T2 sequence (Q8CIP3 1-322): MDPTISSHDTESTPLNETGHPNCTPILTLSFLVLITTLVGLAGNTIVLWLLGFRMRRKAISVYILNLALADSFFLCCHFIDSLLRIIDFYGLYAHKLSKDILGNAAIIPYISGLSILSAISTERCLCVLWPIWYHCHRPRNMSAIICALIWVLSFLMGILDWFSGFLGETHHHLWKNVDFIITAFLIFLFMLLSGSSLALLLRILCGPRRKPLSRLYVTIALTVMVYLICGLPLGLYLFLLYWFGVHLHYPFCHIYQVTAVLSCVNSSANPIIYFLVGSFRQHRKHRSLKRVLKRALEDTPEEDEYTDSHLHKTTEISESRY
Experimental: MRGPR activation was determined by measuring binding of a radiolabelled and non-hydrolyzable form of GTP, [^35S]guanosine-5’-(γ-thio)triphosphate ([^35S]GTPγS) as previously described ([Vasavda et al., 2017]). Briefly, 10 µg of crude membrane fractions were diluted into 175 µL assay buffer (50 mM HEPES, 5 mM MgCl2, 100 mM NaCl, 1 mM EDTA, 0.1% […]) supplemented with 10 µM GDP and incubated at room temperature for 5 min. Membranes were then incubated an additional 1 min in a final volume of 199 μL assay buffer supplemented with 50 μM bilirubin. Samples were then brought to 200 μL with the addition of 10 nM [^35S]GTPγS. Samples were incubated for 2 hr at 4°C with gentle agitation. The experiment was terminated by rapid filtration onto GF/B filters and washed three times with wash buffer (50 mM Tris-HCl, 5 mM MgCl2, and 50 mM NaCl at pH 7.4). Filters were then immersed in scintillation cocktail and counted. Nonspecific binding was determined by competition with 10 μM unlabelled GTPγS. GTPγS binding assays were performed as two independent experiments, in triplicate.

T1 sequence (Q96LA9 whole entry): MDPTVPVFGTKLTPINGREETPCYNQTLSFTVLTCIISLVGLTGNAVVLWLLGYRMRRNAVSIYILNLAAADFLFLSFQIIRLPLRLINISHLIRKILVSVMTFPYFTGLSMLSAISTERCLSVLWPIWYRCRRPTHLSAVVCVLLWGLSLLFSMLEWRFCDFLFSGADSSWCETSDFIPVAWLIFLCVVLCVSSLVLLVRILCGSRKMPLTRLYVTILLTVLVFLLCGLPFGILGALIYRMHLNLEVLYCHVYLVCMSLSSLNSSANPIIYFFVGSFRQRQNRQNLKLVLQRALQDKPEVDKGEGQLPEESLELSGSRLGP

With hemin the “Scratching behavior” value ([1]; metabolite injected into mice (Fig 1D)) was “did not induce scratching” and the “Calcium response / activation of MRGPRX4-expressing cells” value (“Calcium response / activation” for short) [2] was “had no effect”.

In the case of `C=CC1=C(C)/C(=C/c2[nH]c(Cc3[nH]c(/C=C4\NC(=O)C(C)=C4C=C)c(C)c3CCC(=O)NCCS(=O)(=O)O)c(CCC(=O)NCCS(=O)(=O)O)c2C)NC1=O` [conjugated bilirubin, bilirubin ditaurate], the “Calcium response / activation” value [2] is reported as “activated MRGPRX4”, the “Ca2+ response (concentration-response curve)” value (from here on “Ca2+ response”) ([2]; [Ligand] 3.90625e-6 M) is reported as 1.434 and 1.4137 and 1.361 and the “Ca2+ response” value ([2]; [Ligand] 7.8125e-6 M) is reported as 1.454 and 1.384 and 1.354. The “Ca2+ response” value ([2]; [Ligand] 1.5625e-5 M) was 1.439 and 1.34 and 1.332, the “Ca2+ response” value ([2]; [Ligand] 3.125e-5 M) was 1.623 and 1.449 and 1.378 and the “Ca2+ response” value ([2]; [Ligand] 6.25e-5 M) was 1.761 and 1.61 and 1.52. The “Ca2+ response” value ([2]; [Ligand] 0.000125 M) was 1.756 and 1.629 and 1.666, the “Ca2+ response” value ([2]; [Ligand] 0.00025 M) was 1.735 and 1.736 and 1.6528 and the “Ca2+ response” value ([2]; [Ligand] 0.0005 M) was 1.775 and 1.779 and 1.74.

In the case of `C=CC1=C(C)/C(=C/c2[nH]c(Cc3[nH]c(/C=C4\NC(=O)C(C)=C4C=C)c(C)c3CCC(=O)O)c(CCC(=O)O)c2C)NC1=O` [bilirubin, bilirubin IXα], the “GTP binding to MRGPRC11 membrane complexes” value [3] is reported as “not to MRGPRC11”, the “[35S]GTPγS binding” value ([3]; MRGPRC11 membrane complexes (Fig 2K)) is reported as 75 and 84 and 78 and the Scratching bouts ([1]; 60 μg bilirubin pre-incubated with 1% human serum albumin (+HSA), nape, WT mice (Fig 1A)) is reported as 7. The “Scratching of A1 KO animals versus WT mice” value ([1]; 60 µg injected) was “scratched significantly less than WT mice”, the “Scratching of BVR KO mice” value ([1]; 150 µg chloroquine or 60 µg bilirubin, 30 min) was “scratched normally” and the “Scratching bouts to chloroquine plus bilirubin” value ([1]; 1 mM chloroquine plus 500 µM bilirubin injected into back) was “Synergism of bilirubin with chloroquine pruritus”. The “Less scratching of Mrgpr-cluster KO animals than wild type mice” value ([1]; bilirubin injection (Fig 1C)) was “approximately 75%”, the “Scratching” value ([1]; bilirubin pre-incubated with excess human serum albumin) was “elicited fewer scratches” and the “Scratching at the site of injection” value ([1]; pathophysiologic concentrations, s.c. into the nape) was “stimulated scratching in a dose-dependent manner”. For the same compound, the “Scratching bouts binned according to 5 min intervals (time course of itch behavior)” value ([1]; time 5 min) was 0 (10×) and 0.09677 and 0.08333 and 0.1304 and 0.2264 and 0.2353 and 0.07317, the “Scratching bouts binned according to 5 min intervals (time course of itch behavior)” value ([1]; time 10 min) was 0.1786 and 0.5556 and 0.32 and 0.3226 and 0 (4×) and 0.1304 and 0.04 and 0.15 and 0.2642 and 0.1026 and 0.3529 and 0.2941 and 0.05128 and the “Scratching bouts binned according to 5 min intervals (time course of itch behavior)” value ([1]; time 15 min) was 0.25 and 0.4444 and 0.32 and 0.2258 and 0.1667 and 0.3913 and 0.66 and 0.1 and 0.1698 and 0.5116 and 0.2051 and 0.5 and 0.2941 and 0.2647 and 0.1951 and 0.2308. For the same compound, the “Scratching bouts binned according to 5 min intervals (time course of itch behavior)” value ([1]; time 20 min) was 0.07143 and 0 (2×) and 0.16 and 0.06452 and 0.08333 and 0.3043 and 0.1 and 0.45 and 0.1509 and 0.4419 and 0.4872 and 0.1364 and 0.08824 and 0.2195 and 0.1026, the “Scratching bouts binned according to 5 min intervals (time course of itch behavior)” value ([1]; time 25 min) was 0.07143 and 0 (3×) and 0.2 and 0.03226 and 0.3333 and 0.04348 and 0.06 and 0.15 and 0.04651 and 0.2727 and 0.1765 and 0.05882 and 0.3659 and 0.6154 and the “Scratching bouts binned according to 5 min intervals (time course of itch behavior)” value ([1]; time 30 min) was 0.4286 and 0 (5×) and 0.2581 and 0.3333 and 0.14 and 0.15 and 0.1887 and 0.2051 and 0.09091 and 0.1765 and 0.05882 and 0.1463. For the same compound, the “Calcium response / activation” value [2] was “only MRGPRX4-expressing cells responded”, the “Ca2+ response” value ([2]; [Ligand] 1.95313e-6 M) was 0.6657 and 0.5292 and 0.882 and the “Ca2+ response” value ([2]; [Ligand] 3.90625e-6 M) was 0.5596 and 0.9735 and 0.9102. For the same compound, the “Ca2+ response” value ([2]; [Ligand] 7.8125e-6 M) was 0.7828 and 0.7465 and 0.8173, the “Ca2+ response” value ([2]; [Ligand] 1.5625e-5 M) was 0.5886 and 0.7131 and 0.5739 and the “Ca2+ response” value ([2]; [Ligand] 3.125e-5 M) was 0.9259 and 0.9222 and 0.8162. For the same compound, the “Ca2+ response” value ([2]; [Ligand] 6.25e-5 M) was 1.178 and 1.234 and 1.122, the “Ca2+ response” value ([2]; [Ligand] 0.000125 M) was 1.451 and 1.464 and 1.382 and the “Ca2+ response” value ([2]; [Ligand] 0.00025 M) was 1.643 and 1.595 and 1.524.
